Measurements published in ChEMBL document CHEMBL1201862, “PubChem BioAssay data set” (2004).
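Exposure lasted 48 hours, with cells grown in 96-well plates and compounds tested at five concentrations. Here, GI50 denotes the concentration required for 50% inhibition of growth.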 The source made the active and inactive calls. Rule as the data show it: active = GI50 up to about 1.1 µM and inactive = higher.

Columns and labels:
Assay in all cases: NCI-60 cell line screen, 48 h
NCI-H522 = test system: NCI-H522
A549 = test system: A549
MDA-MB-435 = test system: MDA-MB-435
KM12 = test system: KM12
T47D = test system: T47D
NCI-H460 = test system: NCI-H460
SK-OV-3 = test system: SK-OV-3
MCF7 = test system: MCF7
OVCAR-5 = test system: OVCAR-5
OVCAR-4 = test system: OVCAR-4
K562 = test system: K562
SW-620 = test system: SW-620
SR = test system: SR
SF-539 = test system: SF-539
PC-3 = test system: PC-3
Malme-3M = test system: Malme-3M
TK-10 = test system: TK-10
HCT-116 = test system: HCT-116
EKVX = test system: EKVX
NCI/ADR-RES = test system: NCI/ADR-RES
HOP-62 = test system: HOP-62
LOX IMVI = test system: LOX IMVI
NCI-H23 = test system: NCI-H23
A498 = test system: A498
IGROV-1 = test system: IGROV-1
M14 = test system: M14
UACC-257 = test system: UACC-257
SNB-19 = test system: SNB-19
UACC-62 = test system: UACC-62
MOLT-4 = test system: MOLT-4
SK-MEL-2 = test system: SK-MEL-2
BT-549 = test system: BT-549
OVCAR-8 = test system: OVCAR-8
RPMI-8226 = test system: RPMI-8226
HCT-15 = test system: HCT-15
NCI-H226 = test system: NCI-H226
CAKI-1 = test system: CAKI-1
OVCAR-3 = test system: OVCAR-3
MDA-MB-231 = test system: MDA-MB-231
MDA-N = test system: MDA-N
UO-31 = test system: UO-31
Hs-578T = test system: Hs-578T
SK-MEL-5 = test system: SK-MEL-5
DU-145 = test system: DU-145
SF-295 = test system: SF-295
SK-MEL-28 = test system: SK-MEL-28
CCRF-CEM = test system: CCRF-CEM
SN12C = test system: SN12C
HCC 2998 = test system: HCC 2998
SF-268 = test system: SF-268
ACHN = test system: ACHN
786-0 = test system: 786-0
U-251 = test system: U-251
SNB-75 = test system: SNB-75
RXF 393 = test system: RXF 393
COLO 205 = test system: COLO 205
HL-60 = test system: HL-60
HT-29 = test system: HT-29
HOP-92 = test system: HOP-92

In the case of `CCCCCCNC(=S)N/N=C(\C)c1ccccn1`, the GI50 (NCI-H522) is reported as 0.06 µM (active), the GI50 (A549) is reported as 0.12 µM (active) and the GI50 (MDA-MB-435) is reported as 1.53 µM (inactive). For the same molecule, the GI50 (KM12) was 0.394 µM (active), the GI50 (T47D) was < 0.01 µM (active) and the GI50 (NCI-H460) was 0.347 µM (active). For the same molecule, the GI50 (SK-OV-3) was 0.181 µM (active), the GI50 (MCF7) was < 0.0415 µM (active) and the GI50 (OVCAR-5) was 0.728 µM (active). For the same molecule, the GI50 (OVCAR-4) was 11.4 µM (inactive), the GI50 (K562) was < 0.01 µM (active) and the GI50 (SW-620) was < 0.0322 µM (active). For the same molecule, the GI50 (SR) was < 0.01 µM (active), the GI50 (SF-539) was 1.84 µM (inactive) and the GI50 (PC-3) was < 0.01 µM (active). For the same molecule, the GI50 (Malme-3M) was 2.65 µM (inactive), the GI50 (TK-10) was 0.55 µM (active) and the GI50 (HCT-116) was < 0.01 µM (active). For the same molecule, the GI50 (EKVX) was 0.0176 µM (active), the GI50 (NCI/ADR-RES) was < 0.01 µM (active) and the GI50 (HOP-62) was 0.0445 µM (active). The GI50 (LOX IMVI) was 0.0493 µM (active), the GI50 (NCI-H23) was < 0.0311 µM (active) and the GI50 (A498) was 3.18 µM (inactive). For the same molecule, the GI50 (IGROV-1) was < 0.01 µM (active), the GI50 (M14) was 0.0337 µM (active) and the GI50 (UACC-257) was 0.01 µM (active). For the same molecule, the GI50 (SNB-19) was 3.4 µM (inactive), the GI50 (UACC-62) was 0.182 µM (active) and the GI50 (MOLT-4) was < 0.01 µM (active). The GI50 (SK-MEL-2) was 3.09 µM (inactive), the GI50 (BT-549) was 0.111 µM (active) and the GI50 (OVCAR-8) was 0.0912 µM (active). The GI50 (RPMI-8226) was < 0.01 µM (active), the GI50 (HCT-15) was < 0.01 µM and the GI50 (NCI-H226) was 0.138 µM (active). The GI50 (CAKI-1) was < 0.01 µM (active), the GI50 (OVCAR-3) was < 0.01 µM (active) and the GI50 (MDA-MB-231) was 0.217 µM (active). For the same molecule, the GI50 (MDA-N) was 0.904 µM (active), the GI50 (UO-31) was 0.124 µM (active) and the GI50 (Hs-578T) was 20.7 µM (inactive). The GI50 (SK-MEL-5) was 0.299 µM (active), the GI50 (DU-145) was 1.52 µM (inactive) and the GI50 (SF-295) was 0.407 µM (active). For the same molecule, the GI50 (SK-MEL-28) was 2.56 µM (inactive), the GI50 (CCRF-CEM) was < 0.01 µM (active) and the GI50 (SN12C) was 1.41 µM (inactive). The GI50 (HCC 2998) was 0.741 µM (active), the GI50 (SF-268) was 0.604 µM (active) and the GI50 (ACHN) was < 0.0113 µM (active). For the same molecule, the GI50 (786-0) was < 0.0268 µM (active), the GI50 (U-251) was 0.2 µM (active) and the GI50 (SNB-75) was 3.99 µM (inactive). For the same molecule, the GI50 (RXF 393) was 0.0189 µM (active), the GI50 (COLO 205) was < 0.01 µM (active) and the GI50 (HL-60) was < 0.01 µM (active).

With `O=C(O)Cn1ccnc1[N+](=O)[O-]` the GI50 (NCI-H522) was > 100 µM (inactive), the GI50 (A549) was > 100 µM (inactive) and the GI50 (MDA-MB-435) was > 100 µM (inactive). The GI50 (KM12) was > 100 µM (inactive), the GI50 (T47D) was > 100 µM (inactive) and the GI50 (NCI-H460) was > 100 µM (inactive). The GI50 (SK-OV-3) was > 100 µM (inactive), the GI50 (MCF7) was > 100 µM (inactive) and the GI50 (OVCAR-5) was > 100 µM (inactive). For the same molecule, the GI50 (OVCAR-4) was > 100 µM (inactive), the GI50 (K562) was > 100 µM (inactive) and the GI50 (SW-620) was > 100 µM (inactive). The GI50 (SR) was > 100 µM (inactive), the GI50 (SF-539) was > 100 µM (inactive) and the GI50 (PC-3) was > 100 µM (inactive). For the same molecule, the GI50 (HT-29) was > 100 µM (inactive), the GI50 (Malme-3M) was > 100 µM (inactive) and the GI50 (HOP-92) was > 100 µM (inactive). For the same molecule, the GI50 (TK-10) was > 100 µM (inactive), the GI50 (HCT-116) was > 100 µM (inactive) and the GI50 (EKVX) was > 100 µM (inactive). The GI50 (NCI/ADR-RES) was > 100 µM (inactive), the GI50 (HOP-62) was > 100 µM (inactive) and the GI50 (NCI-H23) was > 100 µM (inactive). The GI50 (A498) was > 100 µM (inactive), the GI50 (IGROV-1) was > 100 µM (inactive) and the GI50 (M14) was > 100 µM (inactive). The GI50 (UACC-257) was > 100 µM (inactive), the GI50 (SNB-19) was > 100 µM (inactive) and the GI50 (UACC-62) was > 100 µM (inactive). The GI50 (MOLT-4) was > 100 µM (inactive), the GI50 (SK-MEL-2) was > 100 µM (inactive) and the GI50 (BT-549) was > 100 µM (inactive). For the same molecule, the GI50 (OVCAR-8) was > 100 µM (inactive), the GI50 (RPMI-8226) was > 100 µM (inactive) and the GI50 (HCT-15) was > 100 µM. The GI50 (NCI-H226) was > 100 µM (inactive), the GI50 (CAKI-1) was > 100 µM (inactive) and the GI50 (OVCAR-3) was > 100 µM (inactive). The GI50 (MDA-MB-231) was > 100 µM (inactive), the GI50 (MDA-N) was > 100 µM (inactive) and the GI50 (UO-31) was > 100 µM (inactive). The GI50 (Hs-578T) was > 100 µM (inactive), the GI50 (SK-MEL-5) was > 100 µM (inactive) and the GI50 (DU-145) was > 100 µM (inactive). For the same molecule, the GI50 (SF-295) was > 100 µM (inactive), the GI50 (SK-MEL-28) was > 100 µM (inactive) and the GI50 (CCRF-CEM) was > 100 µM (inactive). For the same molecule, the GI50 (SN12C) was > 100 µM (inactive), the GI50 (HCC 2998) was > 100 µM (inactive) and the GI50 (SF-268) was > 100 µM (inactive). For the same molecule, the GI50 (ACHN) was > 100 µM (inactive), the GI50 (786-0) was > 100 µM (inactive) and the GI50 (U-251) was > 100 µM (inactive). The GI50 (SNB-75) was > 100 µM (inactive), the GI50 (RXF 393) was > 100 µM (inactive) and the GI50 (COLO 205) was > 100 µM (inactive). For the same molecule, the GI50 (HL-60) was > 100 µM (inactive).
